Measured values published in patent publication US6921772B2, “Methods and compositions for the treatment of chronic lymphocytic leukemia” (Salmedix, Inc., priority 1998, dated 2005).

Columns and labels:
[1] = system: normal human adherent mononuclear cells; assay: Uptake of TAMRA stained patient mononuclear cells by normal adherent mononuclear cells (phagocytosis), flow cytometry; format: cell-based
Protocol: To examine the possibility that a metabolite of etodolac or a serum factor may be necessary to achieve the clinical effect, the in vivo percentages of viable, apoptotic and late apoptotic or necrotic cells of isolated mononuclear cells were measured by flow cytometry using FITC annexin and propridium iodide assay. During early apoptosis and preceding DNA fragmentation, phosphatydylserine becomes exposed and bond by annexin V. Later in apoptosis and in cell necrosis, cells also become permeable to propidium iodide. FITC labeled […] and propidium iodide are easily detected by flow cytometry. Mononuclear cells were isolated from the peripheral blood of the patient by differential centrifugation on ficoll-Hypaque at baseline and then daily for three additional days after administration of etodolac. […] However, the percentage of viable cells increased and the percentage of late apoptotic or necrotic cells decreased. […] After an overnight incubation, the adherent cells were isolated and analyzed by flow cytometry for uptake of TAMRA stained cells from the patient. No increase in the uptake of the stained leukemic mononuclear cells by the normal adherent cells could be detected for etodolac compared to naproxen. […]

[2] = system: isolated mononuclear cells from the peripheral blood of the patient; assay: FITC annexin / propidium iodide flow cytometry of the patient's isolated mononuclear cells after etodolac; format: in vivo, human; settings: baseline and daily for three days after administration, as lymphocyte count dropped
Protocol: To examine the possibility that a metabolite of etodolac or a serum factor may be necessary to achieve the clinical effect, the in vivo percentages of viable, apoptotic and late apoptotic or necrotic cells of isolated mononuclear cells were measured by flow cytometry using FITC annexin and propridium iodide assay. During early apoptosis and preceding DNA fragmentation, phosphatydylserine becomes exposed and bond by annexin V. Later in apoptosis and in cell necrosis, cells also become permeable to propidium iodide. FITC labeled […] and propidium iodide are easily detected by flow cytometry. Mononuclear cells were isolated from the peripheral blood of the patient by differential centrifugation on ficoll-Hypaque at baseline and then daily for three additional days after administration of etodolac. […] However, the percentage of viable cells increased and the percentage of late apoptotic or necrotic cells decreased. […] To examine the possibility that etodolac might enhance the clearance of leukemic lymphocytes by enhancing phagocytosis by macrophages, TAMRA stained isolated mononuclear cells from the patient were incubated with normal human adherent mononuclear cells in the presence of naproxen or etodolac in vitro. After an overnight incubation, the adherent cells were isolated and analyzed by flow cytometry for uptake of TAMRA stained cells from the patient. No increase in the uptake of the stained leukemic mononuclear cells by the normal adherent cells could be detected for etodolac compared to naproxen. To test the possibility that a metabolite of etodolac could be responsible for the effect, serum from the patient was collected free of drug, after receiving naproxen 375 mg bid for two days and after receiving etodolac 400 mg bid for two days, and tested in the above manner.

patient with B-cell CLL = assay: In vivo administration of NSAIDs to a B-cell CLL patient: blood cell counts
[3] = B-cell CLL patient, count after NSAID course, etodolac 300 mg BID, mean +/- SD of 3 experiments

| Compound | effect on lymphocyte count of the patient (in words) (patient with B-cell CLL; summary of Table 1) | effect on white blood cell count of the patient (in words) (patient with B-cell CLL; summary of Table 1) | also measured |
| --- | --- | --- | --- |
| CCc1cccc2c3c([nH]c12)C(CC)(CC(=O)O)OCC3 (racemic) [Etodolac, 1,8-diethyl-1,3,4,9-tetrahydro[3,4-b]-indole-1-acetic acid] | substantial reductions | substantial reductions | uptake of stained leukemic mononuclear cells by normal adherent cells ([1]; drug present in vitro, overnight incubation, compared to naproxen): No increase; phagocytosis of lymphocytes with patient serum ([1]; serum collected after etodolac 400 mg bid for two days, compared with drug-free serum and serum after naproxen 375 mg bid): No enhancement; percentage of apoptotic cells [2]: remained the same; percentage of late apoptotic or necrotic cells [2]: decreased; percentage of viable cells [2]: increased; Lymphocyte Ct. x E-3 (patient with B-cell CLL; [3]): 20.68 x E-3; Neutrophil Count x E-3 (patient with B-cell CLL; [3]): 3.58 x E-3; WBC Count x E-3 (patient with B-cell CLL; [3]): 25.27 x E-3; platelet count (in words) (patient with B-cell CLL; Oct. 28, 1997, after 300 mg BID Oct. 25-27, 1997): normal; lymphocyte count (patient with B-cell CLL; Oct. 28, 1997, after 300 mg BID Oct. 25-27, 1997, count before treatment 27.44×E3): 6.70 ×E3; white blood cell count (patient with B-cell CLL; Oct. 28, 1997, after 300 mg BID Oct. 25-27, 1997, count before treatment 34.3×E3): 13.40 ×E3; effect on platelet count (in words) (patient with B-cell CLL; summary of Table 1): increased significantly |
| O=C(O)Cc1ccccc1Nc1c(Cl)cccc1Cl [Diclofenac, diclofenac] | relatively little impact | relatively little impact | – |
| CC(C)Cc1ccc(C(C)C(=O)O)cc1 (stereo not shown) [Ibuprofen, ibuprofen] | relatively little impact | – | – |
| COc1ccc2c(c1)c(CC(=O)O)c(C)n2C(=O)c1ccc(Cl)cc1 [Indomethacin, indomethacin] | relatively little impact | relatively little impact | – |
| COc1ccc2cc(CCC(C)=O)ccc2c1 [Nabumetone, nabumetone] | relatively little impact | relatively little impact | – |
| COc1ccc2cc([C@H](C)C(=O)O)ccc2c1 [Naproxen, naproxen] | relatively little impact | relatively little impact | – |
| O=C(O)CCc1nc(-c2ccccc2)c(-c2ccccc2)o1 [Oxaprozin, oxaprozin] | relatively little impact | relatively little impact | – |
| CN1C(C(=O)Nc2ccccn2)=C(O)c2ccccc2S1(=O)=O [Piroxicam, piroxicam] | relatively little impact | relatively little impact | – |
| CC1=C(CC(=O)O)c2cc(F)ccc2/C1=C\c1ccc([S+](C)[O-])cc1 (stereo not shown) [Sulindac, sulindac] | relatively little impact | relatively little impact | – |
| Cc1ccc(C(=O)c2ccc(CC(=O)O)n2C)cc1 [Tolmetin, tolmetin] | relatively little impact | relatively little impact | – |
